According to patent US5481013A, “Carboxylic acid derivatives” (Ciba-Geigy Corporation, priority 1992, dated 1996):

Key:
Type in all cases: in vivo
[1] = tested on: Dermanyssus gallinae; test: Activity against Dermanyssus gallinae; details: 72 h, 10 ppm solution, mites in different development stages, after 3 days
Method: 2 to 3 ml of a solution comprising 10 ppm of active ingredient and approximately 200 mites in different development stages are placed into a glass container which is open at the top. The container is then sealed with a cottonwool ball, shaken for 10 minutes until the mites are wetted completely, and then briefly turned over so that the remaining test solution can be absorbed by the cottonwool. After 3 days, the mortality of the mites is determined by counting the dead individuals; it is given as a percentage.

[2] = tested on: Nilaparvata lugens; test: Systemic activity against Nilaparvata lugens; details: 144 h, pots with rice plants in 400 ppm aqueous emulsion solution, larvae in stages 2 and 3, evaluated 6 days later, read-out: percentage reduction in population (% activity)
Method: Pots containing rice plants are placed into an aqueous emulsion solution comprising 400 ppm of the active ingredient. The rice plants are subsequently populated with larvae in stages 2 and 3. The test is evaluated 6 days later. The percentage reduction in population (% activity) is determined by comparing the numbers of plant hoppers on the treated plants with those on the untreated plants.

[3] = tested on: Heliothis virescens caterpillars; test: Activity against Heliothis virescens caterpillars; details: 144 h, 400 ppm spray on young soybean plants, first larval stage, evaluated after 6 days, read-out: percentage reduction in population or in feeding damage (% activity)
Method: (§1) Young soybean plants are sprayed with a spray mixture prepared with an aqueous emulsion and comprising 400 ppm of the active ingredient. After the spray coating has dried on, the soybean plants are populated with 10 Heliothis virescens in the first larval stage and placed into a plastic container. The test is evaluated after 6 days. The percentage reduction in population, or the percentage reduction in feeding damage (% activity), is determined by comparing the number of dead caterpillars and the feeding damage on the treated plants with those on the untreated plants.

[4] = tested on: Nilaparvata lugens; test: Activity against Nilaparvata lugens (spray on rice plants); details: 504 h, 400 ppm spray on rice plants, larvae in stages 2 and 3, evaluated after 21 days, read-out: percentage reduction in population (% activity)
Method: Rice plants are treated with a spray mixture prepared with an aqueous emulsion and comprising 400 ppm of the active ingredient. After the spray coating has dried on, the rice plants are populated with plant hopper larvae in stages 2 and 3. The test is evaluated after 21 days. The percentage reduction in population (% activity) is determined by comparing the number of surviving plant hoppers on the treated plants with the number of plant hoppers on the untreated plants. […] An activity of over 80% is shown, in particular, by compound Nos. 1.01, 2.01 to 2.03, 2.07, 2.08, 2.10 to 2.16, 2.20, 2.22, 2.23, 2.26, 3.01, 4.01 to 4.06, 4.20, 5.01 to 5.06, 5.08, 5.10 to 5.12, 5.15, 5.16 and 5.20 to 5.25.

[5] = tested on: Panonychus ulmi (OP- and carb.- resistant); test: Activity against Panonychus ulmi (OP- and carb.- resistant); details: 336 h, 400 ppm spray on apple seedlings, evaluated after 14 days, read-out: percentage reduction in population (% activity)
Method: Apple seedlings are populated with adult females of Panonychus ulmi. After seven days, the infested plants are sprayed to drip point with an aqueous emulsion comprising 400 ppm of the test compound and grown in the greenhouse. The test is evaluated after 14 days. The percentage reduction in population (% activity) is determined by comparing the number of dead spider mites on the treated plants with those on the untreated plants. […] An activity of over 80% is shown, in particular, by compound Nos. 1.01, 2.01, 2.07, 2.08, 2.10, 2.12 to 2.16, 2.22, 2.23, 2.26, 3.01, 4.01, 4.02, 4.06, 5.01 to 5.03, 5.05, 5.06, 5.08, 5.10, 5.11, 5.15, 5.16 and 5.20 to 5.25.

[6] = tested on: Ctenocephalides felis; test: Activity against Ctenocephalides felis; details: 504 h, 100 ppm in flea larvae nutrient medium, flea eggs, checked after 21 days
Method: 20 to 25 flea eggs are placed into a horizontally positioned 50 ml tissue culture flask into which 15 g of flea larvae nutrient medium comprising 100 ppm of the active ingredient to be tested have previously been introduced. The test flasks are incubated in an incubator at 26° to 27° C. and an atmospheric humidity of 60-70%. After 21 days, the flasks are checked for the presence of adult fleas, unhatched pupae and larvae.

[7] = tested on: Nephotettix cincticeps; test: Activity against Nephotettix cincticeps (spray on rice plants); details: 504 h, 400 ppm spray on rice plants, larvae in stages 2 and 3, evaluated 21 days later, read-out: percentage reduction in population (% activity)
Method: Rice plants are treated with a spray mixture prepared with an aqueous emulsion and comprising 400 ppm of the active ingredient. After the spray coating has dried on, the rice plants are populated with leaf hopper larvae in stages 2 and 3. The test is evaluated 21 days later. The percentage reduction in population (% activity) is determined by comparing the number of surviving leaf hoppers on the treated plants with those on the untreated plants.

[8] = tested on: Heliothis virescens; test: Ovicidal/larvicidal activity on Heliothis virescens; details: 192 h, 400 ppm spray on eggs deposited on cotton, evaluated after 8 days, read-out: % reduction in population (hatching percentage of eggs and survival rate of caterpillars)
Method: Heliothis eggs which have been deposited on cotton are sprayed with a spray mixture prepared with an aqueous emulsion and comprising 400 ppm of the active ingredient. After 8 days, the hatching percentage of the eggs and the survival rate of the caterpillars are evaluated by comparing them with untreated control batches (% reduction in population).

[9] = tested on: Tetranychus urticae; test: Activity against Tetranychus urticae; details: 144 h, 400 ppm spray on young bean plants, mixed population, 6 days at 25° C, read-out: percentage reduction in population (% activity)
Method: Young bean plants are populated with a mixed population of Tetranychus urticae and, after 1 day, sprayed with a spray mixture prepared with an aqueous emulsion and comprising 400 ppm of the active ingredient. The plants are subsequently incubated for 6 days at 25° C and then evaluated. The percentage reduction in population (% activity) is determined by comparing the number of dead eggs, larvae and adults on the treated plants with those on the untreated ones.

[10] = tested on: Bemisia tabaci; test: Activity against Bemisia tabaci; details: 336 h, 400 ppm spray on dwarf bean plants with nymphs, evaluated 14 days after application, read-out: activity (hatching percentages vs untreated control)
Method: Dwarf bean plants are placed into gauze cages and populated with adult Bemisia tabaci specimens (white fly). After oviposition has taken place, all adults are removed and, 10 days later, the plants with the nymphs located thereon are treated with a spray mixture of the active ingredients to be tested (concentration 400 ppm), which has been prepared with an aqueous emulsion. The test is evaluated for hatching percentages 14 days after the active ingredient has been applied by comparison with the untreated control batches. […] An activity of over 80% is shown, in particular, by compound Nos. 1.01, 2.01 to 2.08, 2.10 to 2.16, 2.22, 2.23, 3.01, 4.01, 4.02, 4.05, 4.06, 5.02, 5.03, 5.06 to 5.08, 5.10, 5.11, 5.20, 5.21 and 6.09.

[11] = tested on: adult Anthonomus grandis; test: Activity against adult Anthonomus grandis; details: 72 h, 400 ppm spray on young cotton plants, adults, evaluated after 3 days, read-out: percentage reduction in population or in feeding damage (% activity)
Method: as §1, with “cotton” for “soybean”, “adult Anthonomus grandis” for “Heliothis virescens in the first larval stage”, “3” for “6”, “beetles” for “caterpillars”

Compound: CC(OC(=O)CCCC=C(F)F)C(C)Oc1ccc(Oc2ccccc2)cc1 (stereo not drawn) [Compound 2.13]
- mortality at 10 ppm [1]: > 80%

Compound: CC(C)(C)c1ccc(COc2ccc(OCCOC(=O)CCCC=C(F)F)cc2)cc1 [Compound 2.26]
- activity at 400 ppm [2]: > 80%
- activity at 400 ppm [3]: > 80%
- activity at 400 ppm [4]: > 80%
- activity at 400 ppm [5]: > 80%
- pest or weed control at 100 ppm [6]: > 80%
- activity at 400 ppm [7]: > 80%
- pest or weed control at 400 ppm [8]: > 80%
- activity at 400 ppm [9]: > 80%

Compound: O=C(CCCCCCCCCC=C(F)F)OCCOc1ccc(OCc2ccc(Cl)cc2)cc1 [Compound 5.08]
- activity at 400 ppm [4]: > 80%
- activity at 400 ppm [5]: > 80%
- pest or weed control at 100 ppm [6]: > 80%
- activity at 400 ppm [9]: > 80%

Compound: O=C(CCCC=C(F)F)OCCOc1ccc(Oc2ccccn2)cc1 [Compound 2.03]
- activity at 400 ppm [7]: > 80%

Compound: CC(COC(=O)CCCC=C(F)F)Oc1ccc(Oc2ccccc2)cc1 (stereo not drawn) [Compound 2.06]
- activity at 400 ppm [7]: > 80%
- mortality at 10 ppm [1]: > 80%

Compound: CC(COC(=O)CCCCCCCCCC=C(F)F)Oc1ccc(Oc2ccccc2)cc1 (stereo not drawn) [Compound 5.06]
- activity at 400 ppm [5]: > 80%

Compound: O=C(CCCCCCCCCC=C(F)F)NCCOc1ccc(OCc2ccc(C(F)(F)F)cn2)cc1 [Compound 5.21]
- pest or weed control at 400 ppm [10]: > 80%
- mortality at 10 ppm [1]: > 80%

Compound: O=C(CCCC=C(F)F)OCCOc1ccc(OCc2ccc(F)cc2)cc1 [Compound 2.07]
- activity at 400 ppm [11]: > 80%
- activity at 400 ppm [4]: > 80%
- activity at 400 ppm [5]: > 80%
- activity at 400 ppm [7]: > 80%

Compound: N#Cc1ccc(COc2ccc(OCCOC(=O)CCCC=C(F)F)cc2)cc1 [Compound 2.10]
- activity at 400 ppm [5]: > 80%
- activity at 400 ppm [9]: > 80%

Compound: O=C(CCCCCCCC=C(F)F)NCCOc1ccc(Oc2ccccc2)cc1 [Compound 4.20]
- activity at 400 ppm [2]: > 80%
- activity at 400 ppm [3]: > 80%
- activity at 400 ppm [4]: > 80%
- pest or weed control at 400 ppm [8]: > 80%
- activity at 400 ppm [9]: > 80%

Compound: Cc1ccc(COc2ccc(OCCOC(=O)CCCCCCCCCC=C(F)F)cc2)cc1 [Compound 5.11]
- activity at 400 ppm [5]: > 80%
- pest or weed control at 400 ppm [10]: > 80%

Compound: O=C(CCCC=C(F)F)OCCOc1ccc(OCc2ccc(Cl)cc2)cc1 [Compound 2.08]
- activity at 400 ppm [11]: > 80%
- activity at 400 ppm [4]: > 80%
- activity at 400 ppm [5]: > 80%

Compound: CC(COC(=O)CCCCCCCCCC=C(F)F)Oc1ccc(Sc2ccccc2)cc1 (stereo not drawn) [Compound 5.25]
- activity at 400 ppm [3]: > 80%
- activity at 400 ppm [7]: > 80%

Compound: O=C(CCCCCCCC=C(F)F)OCCOc1ccc(OCc2ccccc2)cc1 [Compound 4.05]
- activity at 400 ppm [3]: > 80%
- activity at 400 ppm [7]: > 80%
- pest or weed control at 400 ppm [10]: > 80%
- mortality at 10 ppm [1]: > 80%

Compound: Cc1nsc(Oc2ccc(OCCOC(=O)CCCCCCCC=C(F)F)cc2)n1 [Compound 4.04]
- pest or weed control at 100 ppm [6]: > 80%
- mortality at 10 ppm [1]: > 80%

Compound: O=C(CCCC=C(F)F)OCCOc1ccc(OCc2cccc([N+](=O)[O-])c2)cc1 [Compound 2.15]
- pest or weed control at 400 ppm [8]: > 80%

Compound: O=C(CCCCCCCCCC=C(F)F)OCCOc1ccc(OCc2cccc(Cl)c2)cc1 [Compound 5.20]
- activity at 400 ppm [7]: > 80%
- pest or weed control at 400 ppm [10]: > 80%

Compound: O=C(CCCCCCCCCC=C(F)F)OCCOc1ccc(OCc2cccc([N+](=O)[O-])c2)cc1 [Compound 5.15]
- activity at 400 ppm [2]: > 80%
- activity at 400 ppm [3]: > 80%
- activity at 400 ppm [4]: > 80%
- activity at 400 ppm [5]: > 80%
- activity at 400 ppm [7]: > 80%
- pest or weed control at 400 ppm [8]: > 80%
- activity at 400 ppm [9]: > 80%

Compound: CC(CCCCCCCCCC(=O)OCCOc1ccc(Oc2ccccc2)cc1)=C(F)Cl [Compound 6.09]
- pest or weed control at 400 ppm [10]: > 80%
- pest or weed control at 400 ppm [8]: > 80%

Compound: O=C(CCCC=C(F)F)OCCOc1ccc(Sc2ccccc2)cc1 [Compound 2.02]
- activity at 400 ppm [7]: > 80%

Compound: N#Cc1ccc(COc2ccc(OCCOC(=O)CCCCCCCCCC=C(F)F)cc2)cc1 [Compound 5.10]
- activity at 400 ppm [11]: > 80%
- activity at 400 ppm [5]: > 80%
- pest or weed control at 400 ppm [10]: > 80%

Compound: O=C(CCCCCCCCCC=C(F)F)OCCOc1ccc(Oc2ccccn2)cc1 [Compound 5.03]
- pest or weed control at 400 ppm [10]: > 80%

Compound: Cc1ccc(COc2ccc(OCCOC(=O)CCCC=C(F)F)cc2)cc1C [Compound 2.16]
- pest or weed control at 400 ppm [8]: > 80%

Compound: O=C(CCCCCCCCCC=C(F)F)OCCOc1ccc(OCc2ncc(C(F)(F)F)cc2Cl)cc1 [Compound 5.22]
- activity at 400 ppm [7]: > 80%

Compound: O=C(CCCCCCCC=C(F)F)OCCOc1ccc(Oc2ccccn2)cc1 [Compound 4.03]
- pest or weed control at 100 ppm [6]: > 80%

Compound: O=C(CCCC=C(F)F)NCCOc1ccc(Oc2ccccc2)cc1 [Compound 2.20]
- activity at 400 ppm [2]: > 80%
- activity at 400 ppm [4]: > 80%

Compound: O=C(CCCC=C(F)F)OCCOc1ccc(Oc2ccccc2)cc1 [Compound 2.01]
- activity at 400 ppm [5]: > 80%
- activity at 400 ppm [7]: > 80%

Compound: Cc1ccc(COc2ccc(OCCOC(=O)CCCCCCCCCC=C(F)F)cc2)cc1C [Compound 5.16]
- activity at 400 ppm [11]: > 80%
- activity at 400 ppm [2]: > 80%
- activity at 400 ppm [3]: > 80%
- activity at 400 ppm [4]: > 80%
- activity at 400 ppm [5]: > 80%
- activity at 400 ppm [7]: > 80%
- pest or weed control at 400 ppm [8]: > 80%
- activity at 400 ppm [9]: > 80%
